The record followed here is ChEMBL document CHEMBL1201862, “PubChem BioAssay data set” (2004).

Common to all, as to test: NCI anticancer screen, dose series, 48 h
Test [1] has as its system SK-MEL-28.
The test system of test [2] is SF-539.
Test [3] relates to UACC-62.
The test system of test [4] is CAKI-1.
Test [5] deals with MOLT-4.
For test [6], the system named is DU-145.
The test system of test [7] is SR.
Test [8] relates to SNB-19.
The test system of test [9] is EKVX.
Test [10] concerns OVCAR-8.
Test [11] has as its system SNB-75.
Test [12] has as its system HCT-15.
The test system of test [13] is NCI-H460.
In test [14] the test system is NCI-H23.
For test [15], the system named is SW-620.
Test [16] concerns SN12C.
Test [17] relates to NCI-H226.
The subject of test [18] is A549.
In test [19] the test system is MDA-MB-435.

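Method: 48-hour compound exposure of cells in 96-well plates, five concentrations, linear interpolation of endpoints. The concentration for 50% growth inhibition is given as GI50.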 Activity calls are given as the source filed them. Cut-off read from the data, not from the text of the source: active = GI50 up to about 1.1 µM and inactive = higher.

Regarding `COc1ccc(OC2OC(CO)C(O)C(O)C2O)cc1` (stereo unspecified), the GI50 in test [1], in test [2], in test [3], in [4], in test [5] and in test [6] was > 100 µM (inactive) in each case. The GI50 in test [7] was > 100 µM (inactive); in test [8], > 100 µM (inactive); in [9] it was > 100 µM (inactive); in test [10], > 100 µM (inactive); in test [11], > 100 µM (inactive); in test [12], over 100 µM. In addition, the GI50 in test [13], in [14], in [15], in test [16], in test [17] and in test [18] was > 100 µM (inactive) throughout. Also, the GI50 in [19] is > 100 µM (inactive).
Consider `COC(=O)CC1(O)C=CC(=O)C=C1` [JACARANONE], for which the GI50 in test [1] is 2.38 µM (inactive); in [2], 3.53 µM (inactive); in [3] it was 2.13 µM (inactive); in test [4] it was 3.83 µM (inactive); in test [5], 1.05 µM (active); in test [6] it was 5.06 µM (inactive). The GI50 in [7] is 2.47 µM (inactive); in [8] it was 5.48 µM (inactive); in test [9] it was 4.02 µM (inactive); in test [10] it was 3.4 µM (inactive); in [11] it was 5.43 µM (inactive); in test [12] it was 3.01 µM. Further, the GI50 in test [13] is 2.2 µM (inactive); in test [14] it was 2.96 µM (inactive); in [15], 4.76 µM (inactive); in [16], 9.31 µM (inactive); in [17], 8.61 µM (inactive); in [18], 8.67 µM (inactive). Moreover, the GI50 in test [19] is 6.47 µM (inactive).
Take `CCC(CCCN)Nc1cc(OC)cc2c(C)ccnc12` (stereo unspecified): the GI50 was 16.9 µM (inactive) in test [1]; 18.4 µM (inactive) in test [2]; > 10 µM (inactive) in [3]; 15.5 µM (inactive) in test [4]; 15.8 µM (inactive) in test [5]; 17.5 µM (inactive) in [6]. Moreover, the GI50 in test [7] is 15.3 µM (inactive); in test [8], 11.3 µM (inactive); in [9] it was 18.4 µM (inactive); in test [10], 21.1 µM (inactive); in test [11], 12.7 µM (inactive); in test [12] it was 22.9 µM. For the same molecule, the GI50 in test [13] is 17.7 µM (inactive); in test [15], 20.8 µM (inactive); in test [16], 21.2 µM (inactive); in [17] it was 13.3 µM (inactive); in test [18] it was 15.6 µM (inactive); in [19], 14.8 µM (inactive).
In the case of `Cn1c(=O)[nH]c2nccnc2c1=O`, the GI50 in test [1], in [2], in test [3], in [4], in test [5] and in test [6] was > 10 µM (inactive) throughout. In addition, the GI50 is > 10 µM (inactive) in [7]; > 10 µM (inactive) in test [8]; > 10 µM (inactive) in test [9]; > 10 µM (inactive) in test [10]; > 10 µM (inactive) in test [11]; over 10 µM in test [12]. For the same molecule, the GI50 in test [13], in [14], in test [15], in test [16], in [17] and in test [18] was > 10 µM (inactive) in each case. Further, the GI50 in test [19] was > 10 µM (inactive).
On to `O=C(/C=C/c1ccc(OCc2ccccc2)cc1)NCc1ccc(C(=O)NCCc2c[nH]c3ccccc23)cc1`, for which the GI50 in [1] is 74.5 µM (inactive); in test [2], 2.67 µM (inactive); in test [3], 15.5 µM (inactive); in test [4], 9.18 µM (inactive); in [5], > 59.8 µM (inactive); in [6], 32.8 µM (inactive). The GI50 in test [7] is 20.9 µM (inactive); in test [8], 9.77 µM (inactive); in test [9] it was > 87.1 µM (inactive); in test [10], 6.76 µM (inactive); in [11], 8.3 µM (inactive); in test [12], over 94 µM. Moreover, the GI50 in test [13] is 15.4 µM (inactive); in test [14], 14.9 µM (inactive); in [15], > 65.2 µM (inactive); in [16], 23.8 µM (inactive); in test [17], > 34.6 µM (inactive); in test [18], 17.7 µM (inactive). Also, the GI50 in test [19] is > 57.3 µM (inactive).
As for `C/C(=N\N=C(\N)OB(F)F)c1ccccn1`, the GI50 in [1] is > 100 µM (inactive); in test [2] it was > 100 µM (inactive); in test [3], 82.2 µM (inactive); in test [4] it was > 100 µM (inactive); in test [6], > 100 µM (inactive); in test [7], 76.6 µM (inactive). For the same molecule, the GI50 in [8] is > 100 µM (inactive); in test [9], 18.5 µM (inactive); in test [10], 75 µM (inactive); in [11], 7.23 µM (inactive); in test [12], 93.8 µM; in [13], 40.8 µM (inactive). Besides, the GI50 was > 100 µM (inactive) in test [14]; > 100 µM (inactive) in test [15]; > 100 µM (inactive) in [16]; 40.8 µM (inactive) in test [17]; > 100 µM (inactive) in [18]; > 100 µM (inactive) in [19].
As for `Nc1ccc(C(=O)N2CCC[C@H]2CO)c(N)c1`, the GI50 in [1], in [2], in [3], in test [4], in test [5] and in test [6] was > 100 µM (inactive) in each case. Also, the GI50 was > 100 µM (inactive) in test [7]; > 100 µM (inactive) in test [8]; > 100 µM (inactive) in [9]; > 100 µM (inactive) in test [10]; > 100 µM (inactive) in test [11]; over 100 µM in test [12]. Moreover, the GI50 in [13], in test [14], in test [15], in test [16], in test [17] and in [18] was > 100 µM (inactive) in each case. Besides, the GI50 in test [19] is > 100 µM (inactive).
For the molecule `Cn1nnnc1SC(F)(F)c1nc2ccccc2o1`, the GI50 was > 100 µM (inactive) in [1]; > 100 µM (inactive) in test [2]; > 100 µM (inactive) in test [3]; > 100 µM (inactive) in test [4]; 24.1 µM (inactive) in test [5]; > 100 µM (inactive) in test [6]. The GI50 was > 100 µM (inactive) in test [7]; > 100 µM (inactive) in test [10]; 52.1 µM (inactive) in test [11]; over 100 µM in test [12]; > 100 µM (inactive) in test [13]; > 100 µM (inactive) in test [14]. For the same molecule, the GI50 in test [15], in test [16], in test [17], in [18] and in test [19] was > 100 µM (inactive) in each case.
As for `CCOC(=O)c1nc2ccc(C(F)(F)F)cc2nc1NCc1cc(OC)c(OC)c(OC)c1`, the GI50 was 34 µM (inactive) in test [1]; 38.6 µM (inactive) in test [2]; 53.5 µM (inactive) in [3]; > 100 µM (inactive) in test [4]; 70.8 µM (inactive) in test [5]; 66.5 µM (inactive) in test [6]. Besides, the GI50 was 7.38 µM (inactive) in [7]; > 100 µM (inactive) in test [8]; 60.3 µM (inactive) in test [9]; > 100 µM (inactive) in test [10]; 29.1 µM (inactive) in [11]; 48.9 µM in test [12]. Moreover, the GI50 in test [14] is 59.2 µM (inactive); in test [15], 54.1 µM (inactive); in [16], > 100 µM (inactive); in test [17], > 100 µM (inactive); in test [18], 73.3 µM (inactive); in [19], 35.6 µM (inactive).
In the case of `Nc1cc(-c2ccc(Cl)cc2)nn1-c1nc2ccccc2nc1-c1ccccc1`, the GI50 was 79.4 µM (inactive) in test [1]; 95.9 µM (inactive) in [2]; > 100 µM (inactive) in test [3]; > 100 µM (inactive) in [4]; 8.02 µM (inactive) in test [5]; > 100 µM (inactive) in [6]. The GI50 in [7] is 71.8 µM (inactive); in test [8], 47.8 µM (inactive); in test [9], > 100 µM (inactive); in test [10], > 100 µM (inactive); in [11], 27.6 µM (inactive); in test [12], over 100 µM. Moreover, the GI50 was > 100 µM (inactive) in [13]; > 100 µM (inactive) in [15]; 80.7 µM (inactive) in test [16]; > 100 µM (inactive) in test [17]; > 100 µM (inactive) in test [18]; > 100 µM (inactive) in [19].
As to `O=C(CC(C(=O)c1ccco1)c1ccco1)c1ccco1` (stereo unspecified), the GI50 in [1], in [2], in test [3], in test [4], in test [5] and in [6] was > 100 µM (inactive) in each case. Moreover, the GI50 in test [7], in test [9], in test [10], in test [11], in test [13] and in test [14] was > 100 µM (inactive) each time. Moreover, the GI50 in test [15], in test [16], in test [17], in test [18] and in test [19] was > 100 µM (inactive) in each case.
